The values below come from ChEMBL document CHEMBL1156356, “Aromatase inhibitors from Broussonetia papyrifera” (J Nat Prod, 2001).

The target of this test is T1, Aromatase (Homo sapiens, UniProt P11511).
T1 sequence (P11511 whole entry): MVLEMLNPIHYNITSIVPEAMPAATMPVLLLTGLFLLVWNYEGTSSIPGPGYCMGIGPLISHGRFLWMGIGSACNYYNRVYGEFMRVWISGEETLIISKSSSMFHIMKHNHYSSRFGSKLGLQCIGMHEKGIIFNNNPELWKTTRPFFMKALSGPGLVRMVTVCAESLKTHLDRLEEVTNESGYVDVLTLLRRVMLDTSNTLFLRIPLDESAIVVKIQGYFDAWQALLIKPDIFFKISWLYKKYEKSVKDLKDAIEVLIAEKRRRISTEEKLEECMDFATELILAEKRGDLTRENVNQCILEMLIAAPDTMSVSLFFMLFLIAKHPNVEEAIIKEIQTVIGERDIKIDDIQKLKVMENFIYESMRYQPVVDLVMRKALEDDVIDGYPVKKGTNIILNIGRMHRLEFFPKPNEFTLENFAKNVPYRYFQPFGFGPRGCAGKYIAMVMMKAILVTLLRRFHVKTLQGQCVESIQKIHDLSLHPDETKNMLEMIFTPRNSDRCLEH
As to the kind of experiment: Inhibition of aromatase from human placental microsomes.
As a reminder, the IC50 is the point on the concentration scale where inhibition reaches its midpoint. Higher therefore signals weaker potency in that assay. `O=C(/C=C/c1ccc(O)cc1O)c1ccc(O)cc1O`: the IC50 is more than 147 µM. For `Oc1ccc(CCCc2ccc(O)cc2O)cc1`, the IC50 was more than 164 µM. Turning to `CC(C)=CCc1cc([C@@H]2CCc3ccc(O)cc3O2)ccc1O`, the IC50 is more than 129 µM. The value for `CC(C)=CCC/C(C)=C/Cc1c(O)cc2oc(-c3ccc(O)c(O)c3)c(O)c(=O)c2c1O` was more than 91.2 µM.

Compound `COc1c(-c2ccc(O)c(O)c2)oc2cc(O)c(C/C=C(\C)CCC=C(C)C)c(O)c2c1=O` registered an IC50 of more than 88.4 µM.

With `CC(C)=CCc1c(O)ccc(CCCc2ccc(O)cc2)c1O`, the IC50 is more than 128 µM.

Compound `CC(C)(O)C1Cc2c(ccc3c2O[C@H](c2ccc(O)cc2O)CC3=O)O1` (some centres undefined) registered an IC50 of 0.1 µM. `CC(C)=CCc1cc(C2CC(=O)c3c(O)cc(O)cc3O2)ccc1O` (centres undefined) gave an IC50 of 0.4 µM. `CC(C)=CCc1c(O)ccc2c1O[C@H](c1ccc(O)cc1O)CC2=O` gave an IC50 of 3.4 µM. The value for `Oc1ccc([C@@H]2CCc3ccc(O)cc3O2)cc1` was more than 165 µM. The value for `COc1cc(O)ccc1CCCc1ccc(O)c(CC=C(C)C)c1` was more than 123 µM; that for `CC(C)=CCc1cc([C@H]2Oc3c(CC=C(C)C)c(O)cc(O)c3C(=O)[C@@H]2O)ccc1O` was more than 94.2 µM.

The compound `O=c1ccc2c(o1)CCCC2` yielded an IC50 of more than 266 µM. Compound `CC1=C[C@@H]2c3c(O)cc(-c4cc5ccc(O)cc5o4)cc3O[C@]3(c4ccc(O)cc4O)Oc4cc(O)ccc4[C@@H](C1)C23` (some centres undefined) [ALBANOL A] had an IC50 of 7.5 µM. The value for `CC(C)=CCc1cc2c(cc1O)O[C@H](c1ccc(O)cc1)CC2=O` [BAVACHIN] was more than 123 µM; that for `CC(C)=CCc1cc(C(=O)/C=C/c2ccc(O)c(O)c2)c(O)cc1O` [BROUSSOCHALCONE A] was more than 118 µM; that for `CC(C)=CCc1cc(C(=O)/C=C/c2ccc(O)cc2)c(O)cc1O` [BROUSSOCHALCONE B] was more than 123 µM. The value for `CC(C)=CCc1cc(-c2oc3c(CC=C(C)C)c(O)cc(O)c3c(=O)c2O)ccc1O` [BROUSSOFLAVONOL F] was 9.7 µM; that for `COc1ccc(CCCc2ccc(O)cc2)c(O)c1` [BROUSSONIN A] was 30 µM; that for `COc1cc(O)ccc1CCCc1ccc(O)cc1` [BROUSSONIN B] was more than 155 µM. For the compound `COc1ccc(CCCc2ccc(OC)c(O)c2)c(O)c1` [BROUSSONIN E], the IC50 is more than 139 µM.

In turn, `COc1ccc(CCCc2ccc(O)c(OC)c2)c(OC)c1` [BROUSSONIN F] registered an IC50 of more than 132 µM. Take `CC(C)=CCc1c(O)cc(O)cc1-c1cc2ccc(O)cc2o1` [DEMETHYLMORACIN I]: the midpoint of inhibition, the IC50, lay at 31.1 µM. The value for `O=C1c2c(O)cc(O)cc2O[C@H](c2ccc(O)cc2)[C@H]1O` [DIHYDROKAEMPFEROL] was more than 139 µM; that for `O=C1c2c(O)cc(O)cc2O[C@H](c2ccc(O)cc2O)[C@H]1O` [DIHYDROMORIN] was more than 131 µM. Take `CC(C)=CCc1c(O)cc2oc(-c3ccc(O)c(O)c3)c(O)c(=O)c2c1O` [GANCAONIN P]: the IC50 was more than 108 µM. Consider `CC(C)=CCc1c(O)ccc(C(=O)/C=C/c2ccc(O)cc2)c1O` [ISOBAVACHALCONE], for which the IC50 was more than 123 µM. The value for `CC(C)=CCc1cc(-c2oc3cc(O)cc(O)c3c(=O)c2O)ccc1O` [ISOLICOFLAVONOL] was 0.1 µM; that for `CC1(C)C[C@H](O)C[C@@]2(C)OC(=O)C=C12` [LOLIOLIDE] was more than 204 µM; that for `CC(C)(O)[C@@H]1Cc2cc3ccc(=O)oc3cc2O1` [MARMESIN] was more than 162 µM. The compound `CC1(C)C=Cc2c(O)cc(-c3cc4ccc(O)cc4o3)cc2O1` [MORACIN D] came in with an IC50 of more than 130 µM.

For `COc1cc(O)cc(-c2cc3ccc(O)cc3o2)c1CC=C(C)C` [MORACIN I], the IC50 was more than 123 µM. Consider `Oc1cc(O)cc(-c2cc3ccc(O)cc3o2)c1` [MORACIN M], for which the IC50 was more than 165 µM. The value for `CC(C)=CCc1cc2cc(-c3cc(O)cc(O)c3)oc2cc1O` [MORACIN N] was 31.1 µM.
